Where a name gives a salt, the structure may show the parent alone.
Experiments:
[1] = target: CK1δ/ε; test: CK1δ/ε kinase assay; assay type: biochemical, pig; conditions: 15 μM ATP, 30° C., CK1-specific peptide substrate
Method: (§1) The blank values were subtracted and the activities calculated as μmoles of phosphate incorporated per 10 minutes of incubation. […] Controls were performed with appropriate dilutions of dimethyl sulfoxide.
(§2) ATP (3000 Ci/mmol; 10 mCi/ml) in a final volume of 30 μl. After incubation for 30 minutes at 30° C., aliquotes of 25 μl of the supernatant were spotted onto Whatman P81 phosphocellulose paper filters and, 20 seconds later, the filters were washed five times (for at least five minutes each time) in a solution of 10 ml of phosphoric acid/liter of water. The wet filters were subjected to counting in the presence of an ACS scintillation fluid from Amersham. CDK2/cyclin A (human, recombinant, expressed in insect cells) was assayed as described for CDK1/cyclin B. CDK5/p25 was reconstituted by mixing equal amounts of recombinant mammalian CDK5 and p25 expressed in E. coli as a GST (glutathione-S-transferase) fusion protein and purified by affinity chromatography on glutathione-agarose (p25 is a truncated version of p35, the 35 kDa CDK5 activator). […] DYRK1A (human, recombinant, expressed in E. coli as a GST fusion protein) was purified on glutathione-agarose, assayed as described for CDK1/cyclin B with myelin basic protein (1 mg/ml) as substrate.

[2] = target: T1, CDK9/cyclin T (Homo sapiens, UniProt P50750); test: CDK9/cyclin T kinase assay; assay type: biochemical; conditions: 15 μM ATP, 30° C., pRB fragment substrate
T1 construct: host or cells: insect cells
T1 sequence (P50750 whole entry, the tested form may be a part): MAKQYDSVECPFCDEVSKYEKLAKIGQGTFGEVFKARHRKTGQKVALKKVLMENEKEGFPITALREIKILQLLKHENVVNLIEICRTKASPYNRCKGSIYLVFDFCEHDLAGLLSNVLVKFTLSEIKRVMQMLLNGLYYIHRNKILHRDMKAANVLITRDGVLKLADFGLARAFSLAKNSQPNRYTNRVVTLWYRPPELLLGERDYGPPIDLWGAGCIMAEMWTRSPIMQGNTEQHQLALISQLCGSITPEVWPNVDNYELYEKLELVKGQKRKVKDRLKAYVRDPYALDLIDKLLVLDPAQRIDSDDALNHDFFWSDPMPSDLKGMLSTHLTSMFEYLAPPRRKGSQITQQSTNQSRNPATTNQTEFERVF
T1 sequence (O60563 whole entry partner, the tested form may be a part): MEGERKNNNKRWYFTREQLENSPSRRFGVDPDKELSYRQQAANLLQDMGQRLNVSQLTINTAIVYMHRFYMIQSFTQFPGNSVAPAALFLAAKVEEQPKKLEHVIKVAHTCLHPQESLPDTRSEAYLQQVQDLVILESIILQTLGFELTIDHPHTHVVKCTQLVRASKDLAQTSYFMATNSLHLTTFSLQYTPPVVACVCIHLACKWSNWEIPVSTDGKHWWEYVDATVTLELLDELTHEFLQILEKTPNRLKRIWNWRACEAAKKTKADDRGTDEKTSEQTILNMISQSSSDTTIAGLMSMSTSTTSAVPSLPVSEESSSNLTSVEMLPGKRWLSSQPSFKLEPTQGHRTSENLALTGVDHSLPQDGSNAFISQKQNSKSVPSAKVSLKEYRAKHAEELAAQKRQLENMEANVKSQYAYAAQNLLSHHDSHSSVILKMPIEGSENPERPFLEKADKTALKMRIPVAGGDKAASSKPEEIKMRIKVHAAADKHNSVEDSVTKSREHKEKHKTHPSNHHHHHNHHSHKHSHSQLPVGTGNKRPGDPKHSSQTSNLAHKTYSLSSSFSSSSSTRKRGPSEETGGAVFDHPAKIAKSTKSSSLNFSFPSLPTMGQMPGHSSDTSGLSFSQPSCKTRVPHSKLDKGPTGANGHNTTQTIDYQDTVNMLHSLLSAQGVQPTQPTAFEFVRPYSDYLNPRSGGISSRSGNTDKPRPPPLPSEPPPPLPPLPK

[3] = target: DYRK1A (Homo sapiens, UniProt Q13627); test: DYRK1A kinase assay; assay type: biochemical; conditions: 15 μM ATP, 30° C., myelin basic protein substrate
Method: as §1, §2

[4] = target: CDK5/p25 (Homo sapiens, UniProt Q00535); test: CDK5/p25 kinase assay; assay type: biochemical, mammalian; conditions: 15 μM ATP, 30° C., histone H1 substrate
Sequence of CDK5/p25 (Q00535 whole entry, species assumed): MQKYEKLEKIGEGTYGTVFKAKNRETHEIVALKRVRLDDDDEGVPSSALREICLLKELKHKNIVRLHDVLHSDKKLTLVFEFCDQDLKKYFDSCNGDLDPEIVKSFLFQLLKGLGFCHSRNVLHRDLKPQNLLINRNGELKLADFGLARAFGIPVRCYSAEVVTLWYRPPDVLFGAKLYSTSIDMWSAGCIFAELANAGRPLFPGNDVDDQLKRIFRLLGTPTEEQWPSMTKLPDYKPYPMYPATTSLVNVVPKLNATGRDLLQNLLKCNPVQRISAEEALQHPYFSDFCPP
Sequence of CDK5/p25 (Q15078 99-307 partner limits assumed, species assumed): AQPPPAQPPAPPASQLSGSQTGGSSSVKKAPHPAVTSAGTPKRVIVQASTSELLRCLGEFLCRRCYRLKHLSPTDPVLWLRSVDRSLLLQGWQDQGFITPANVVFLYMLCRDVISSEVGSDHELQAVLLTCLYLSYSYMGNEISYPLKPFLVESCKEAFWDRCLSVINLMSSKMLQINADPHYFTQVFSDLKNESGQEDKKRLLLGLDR
Method: (§3) Buffer C: 60 mM β-glycerophosphate, 15 mM p-nitrophenyl phosphate, 25 mM Mops (pH 7.2), 5 mM EGTA, 15 mM MgCl2, 1 mM DTT, 1 mM sodium vanadate, 1 mM phenyl phosphate, 10 μg leupeptin/ml, 10 μg aprotinin/ml and 100 μM benzamidine.
(§4) Controls were performed with appropriate dilutions of dimethyl sulfoxide.
as §2

[5] = target: GSK-3α/β; test: GSK-3α/β kinase assay; assay type: biochemical, pig; conditions: 15 μM ATP, 30° C., buffer A, GS-1 substrate
[6] = target: T2, CDK2/cyclin A (Homo sapiens, UniProt P24941); test: CDK2/cyclin A kinase assay; assay type: biochemical; conditions: 15 μM ATP, 30° C., histone H1 substrate
T2 construct: host or cells: insect cells
Method: as §3, §4, §2

[7] = test system: SH-SY5Y human neuroblastoma cells; test: SH-SY5Y cell viability (MTS reduction); assay type: cell-based; conditions: SH-SY5Y cell line, cell viability by MTS
Method: A Cell Titer 96® kit containing the MTS reagent was purchased from Promega (Madison, Wis., USA). The protease inhibitor cocktail came from Roche and the fetal calf serum (FCS) came from Invitrogen. The reagents not listed came from Sigma, unless otherwise indicated.
The SH-SY5Y human neuroblastoma cell line was grown in a DMEM medium with L-glutamine from Invitrogen (Cergy Pontoise, France), antibiotics and 10% by volume of FCS from Invitrogen. The general culture conditions were a 5% CO2 atmosphere and a temperature of 37° C. The culture plates and other disposable plastic tools were supplied by Corning (Corning, N.Y., USA). The treatments with the compounds of the invention were carried out on cultures in exponential growth over time, and indicated concentrations. The control experiments were carried out also using suitable dilutions of DMSO.
The cell viability was determined by measuring the reduction of 3-(4,5-dimethylthiazol-2-yl)-5-(3-carboxymethoxyphenyl)-2-(4-sulfophenyl)-2H-tetrazolium (MTS).

[8] = test system: Human chronic lymphoid leukemia (B-CLL) lymphocytes; test: B-CLL cell apoptosis (annexin V / propidium iodide, flow cytometry); assay type: cell-based; conditions: B-CLL cells from patients
Method: The CLL cells were isolated from heparinized blood of untreated patients after informed consent.
The mononuclear cells were isolated by centrifugation on a Lymphosep density gradient (Biowest). […] When the percentage of CD19+/CD5+ cells was less than 90%, the B lymphocytes were enriched using the kit II for B-cell enrichment by immunomagnetic depletion of the monocytes, NK cells, granulocytes and T lymphocytes (Miltenyi Biotech).
After incubation, the B-CLL cells were harvested, washed in PBS and resuspended in 100 μl of 1× binding buffer containing FITC-conjugated annexin V and propidium iodide (Beckman Coulter Apoptosis Detection Kit). After incubation for 10 min on ice, the cells were analyzed by flow cytometry and the percentage of cells undergoing apoptosis was determined.

[9] = target: CDK1/cyclin B; test: CDK1/cyclin B kinase assay; assay type: biochemical, starfish (Marthasterias glacialis); conditions: 15 μM ATP, 30° C., histone H1 substrate
Method: Homogenization buffers: 60 mM β-glycerophosphate, 15 mM p-nitrophenyl phosphate, 25 mM Mops (pH 7.2), 15 mM EGTA, 15 mM MgCl2, 1 mM DTT, 1 mM sodium vanadate, 1 mM NaF, 1 mM phenyl phosphate, 10 μg leupeptin/ml, 10 μg aprotinin/ml, 10 μg soybean trypsin inhibitor/ml and 100 μM benzamidine.
as §3, §4, §2

[10] = test system: the four kinases assayed; test: Tests on the four kinases assayed (comparison of enantiomers 34 and 31); assay type: biochemical; conditions: 34 versus 31
Method: The kinases were assayed in buffer A or buffer C, at 30° C., at a final ATP concentration of 15 μM. The blank values were subtracted and the activities calculated as μmoles of phosphate incorporated per 10 minutes of incubation. The activities are usually expressed as % (percentage) of maximum activity, i.e. in the absence of inhibitors. Controls were performed with appropriate dilutions of dimethyl sulfoxide.
[…]. J. Biochem. 1997, 243, 527-536. The kinase activity was assayed in buffer C, with 1 mg of histone H1/ml, in the presence of 15 μM of [γ-^33P] ATP (3000 Ci/mmol; 10 mCi/ml) in a final volume of 30 μl. After incubation for 30 minutes at 30° C., aliquotes of 25 μl of the supernatant were spotted onto Whatman P81 phosphocellulose paper filters and, 20 seconds later, the filters were washed five times (for at least five minutes each time) in a solution of 10 ml of phosphoric acid/liter of water. The wet filters were subjected to counting in the presence of an ACS scintillation fluid from Amersham. […]

| IC50 [1] [nM] | IC50 [2] [nM] | IC50 [3] [nM] | IC50 [4] [nM] | IC50 [5] [µM] | IC50 [6] [nM] | IC50 ([7]; Homo sapiens) [nM] | IC50 ([8]; Homo sapiens) [nM] | IC50 [9] [nM] | IC50 [7] [nM] | IC50 [8] [nM] | Compound | activity compared with enantiomer on the four kinases assayed [10] |
| --- | --- | --- | --- | --- | --- | --- | --- | --- | --- | --- | --- | --- |
| 210 | 93 | 2200 | 180 | > 10 | 220 | 430 | 189 | 180 |  |  | CC[C@H](CO)Nc1nc(NCc2ccc(-c3ccccc3)cc2)n2ncc(C(C)C)c2n1 [Compound 1, (R)-2-(1-hydroxybut-2-ylamino)-8-isopropyl-4-(4-phenylbenzylamino)pyrazolo[1,5-a]-1,3,5-triazine] |  |
| 210 | 73 | 1800 | 40 | 4 | 28 | 44 | 32 | 23 |  |  | CC[C@H](CO)Nc1nc(NCc2ccc(-c3ccccn3)cc2)n2ncc(C(C)C)c2n1 [Compound 2, (R)-2-(1-hydroxybut-2-ylamino)-8-isopropyl-4-[4-(pyridin-2-yl)benzylamino]pyrazolo[1,5-a]-1,3,5-triazine] |  |
| 130 | 31 | 2200 | 18 | 3.1 | 21 |  |  | 16 | 59 | 32 | CC[C@H](CO)Nc1nc(NCc2ccc(-c3ccccn3)cc2)n2ncc(C(C)C)c2n1 [Compound 3, Fumarate salt of (R)-2-(1-hydroxybut-2-ylamino)-8-isopropyl-4-[4-(pyridin-2-yl)benzylamino]pyrazolo[1,5-a]-1,3,5-triazine] |  |
| 100 |  | 420 | 10 | 0.53 |  | < 30 |  |  |  |  | CCc1cnn2c(NCc3ccc(-c4ccccn4)cc3)nc(NC[C@H](O)CO)nc12 [Compound 34, (S)-2-(1,2-dihydroxypropan-3-ylamino)-8-ethyl-4-[4-(pyridin-2-yl)benzylamino]pyrazolo[1,5-a]-1,3,5-triazine] | more active than the derivative 31 |
